Experimental data: US12371454B2, “Cyclic peptide compound having Kras inhibitory action” (priority 2019, dated 2025)
Positions of bridges follow the written chain, without caps; N, C: chain ends. Non-standard residues stand in square brackets, D forms with d. Residues, ends and D or L forms follow the SMILES beside them. *: point of attachment. hPhe(3-Cl-4-CF3) = N[C@@H](CCc1ccc(C(F)(F)F)c(Cl)c1)C(=O)O; hPhe(3-F,4-CF3) = N[C@@H](CCc1ccc(C(F)(F)F)c(F)c1)C(=O)O; Phe(3,5-Cl2) = N[C@@H](Cc1cc(Cl)cc(Cl)c1)C(=O)O; NEtPhe(4-Cl) = CCN[C@@H](Cc1ccc(Cl)cc1)C(=O)O; NMePhe(4-Cl) = CN[C@@H](Cc1ccc(Cl)cc1)C(=O)O; NMePhe(2-Cl) = CN[C@@H](Cc1ccccc1Cl)C(=O)O; NMeGly(cPent) = CN[C@H](C(=O)O)C1CCCC1; Phe(3-I) = N[C@@H](Cc1cccc(I)c1)C(=O)O; NMe3Pal = CN[C@@H](Cc1cccnc1)C(=O)O; NMeCha = CN[C@@H](CC1CCCCC1)C(=O)O; Ala(cPr) = N[C@@H](CC1CC1)C(=O)O; NMeChg = CN[C@H](C(=O)O)C1CCCCC1; NMeT = CN[C@H](C(=O)O)[C@@H](C)O; NMeD = CN[C@@H](CC(=O)O)C(=O)O; NMeL = CN[C@@H](CC(C)C)C(=O)O; NMeV = CN[C@H](C(=O)O)C(C)C; d(β3hA) = C[C@@H](N)CC(=O)O; NMeA = CN[C@@H](C)C(=O)O; NMeAib = CNC(C)(C)C(=O)O; Nle = CCCC[C@H](N)C(=O)O; Piperidide = C1CCN(*)CC1; Pyrrolidide = C1CCN(*)C1; Ac5c = NC1(C(=O)O)CCCC1; Aze = O=C(O)[C@@H]1CCN1; Aib = CC(C)(N)C(=O)O; Sar = CNCC(=O)O

target: T1, Kras and SOS1 (biotin-tagged human Kras loaded with GDP, His-tagged human SOS1) (Homo sapiens, UniProt P01116, G12D); experiment: Protein-protein interaction inhibition between Kras and SOS1 (KrasGl2D-SOS PPI) using AlphaScreen; format: binding; details: AlphaScreen; biotin-tagged human Kras loaded with GDP, His-tagged human SOS1; read-out: KRAS G12D-SOS PPI IC50
T1 construct: made in house; host or cells: E. coli (stated for Kras only)
How it was run: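 Energy transfer from nickel-chelate donor beads bound to His-SOS1 to streptavidin acceptor beads bound to biotin-Kras, expressed in E. coli and loaded with GDP after purification, was monitored. Donors were excited at 680 nm; singlet oxygen reaching acceptors gave emission read at 520-620 nm.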

T1 sequence (P01116 1-188 isoform P01116-2 G12D): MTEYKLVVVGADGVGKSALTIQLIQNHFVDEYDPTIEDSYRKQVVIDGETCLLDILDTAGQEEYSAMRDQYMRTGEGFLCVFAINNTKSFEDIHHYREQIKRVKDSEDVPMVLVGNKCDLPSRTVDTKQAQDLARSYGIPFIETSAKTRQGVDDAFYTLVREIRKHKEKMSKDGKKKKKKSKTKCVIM

Compared with `CC[C@H](C)[C@@H]1NC(=O)[C@H](CC(C)C)N(C)C(=O)C[C@@H](C(=O)N2CCCCC2)NC(=O)[C@H](C(C)C)N(C)C(=O)C2(CCCC2)NC(=O)[C@@H]2CCCN2C(=O)[C@H](CCc2ccc(C(F)(F)F)c(Cl)c2)NC(=O)CN(C)C(=O)[C@H](CC2CCCCC2)N(C)C(=O)CN(C)C(=O)CN(C)C1=O` [Compound 417] ([NMeL]I[Sar][Sar][NMeCha][Sar][hPhe(3-Cl-4-CF3)]P[Ac5c][NMeV]D-Piperidide; lactam N-11), `CC(C)C[C@H]1C(=O)N[C@@H](CC2CC2)C(=O)N(C)CC(=O)N(C)CC(=O)N(C)[C@@H](CC2CCCCC2)C(=O)N(C)CC(=O)N[C@@H](CCc2ccc(C(F)(F)F)c(Cl)c2)C(=O)N2CCC[C@H]2C(=O)NC2(CCCC2)C(=O)N(C)[C@@H](C(C)C)C(=O)N(C)[C@H](C(=O)N2CCCCC2)CC(=O)N1C` [Compound 421] ([NMeL][Ala(cPr)][Sar][Sar][NMeCha][Sar][hPhe(3-Cl-4-CF3)]P[Ac5c][NMeV][NMeD]-Piperidide; lactam N-11) is 1.5-fold lower in IC50: 15 nM for the first, 10 nM for the second. The second is the more potent here.

Going from `CC[C@H](C)[C@@H]1NC(=O)[C@H](C(C)C)N(C)C(=O)C[C@@H](C)NC(=O)[C@H](CC(C)C)N(C)C(=O)C2(CCCC2)NC(=O)[C@H](CC(C)C)N(C)C(=O)[C@H](CCc2ccc(C(F)(F)F)c(F)c2)NC(=O)CN(C)C(=O)[C@H](Cc2ccc(Cl)cc2)N(C)C(=O)[C@@H]2CCN2C(=O)CN(C)C1=O` [Compound 418] (cyclo([Ac5c][NMeL][d(β3hA)][NMeV]I[Sar][Aze][NMePhe(4-Cl)][Sar][hPhe(3-F,4-CF3)][NMeL])) to `CC[C@H](C)[C@@H]1NC(=O)[C@H](C)N(C)C(=O)C[C@@H](C)NC(=O)[C@H](C2CCCC2)N(C)C(=O)C2(CCCC2)NC(=O)[C@@H]2CCCN2C(=O)[C@H](CCc2ccc(C(F)(F)F)c(Cl)c2)NC(=O)CN(C)C(=O)[C@H](CC(C)C)N(C)C(=O)[C@@H]2CCCN2C(=O)CN(C)C1=O` [Compound 429] (cyclo([Ac5c][NMeGly(cPent)][d(β3hA)][NMeA]I[Sar]P[NMeL][Sar][hPhe(3-Cl-4-CF3)]P)), the IC50 rises from 17 nM to 99 nM (5.8-fold).

First: CCCC[C@@H]1NC(=O)[C@H](Cc2cccc(I)c2)NC(=O)CN(C)C(=O)[C@H](Cc2ccc(Cl)cc2)N(CC)C(=O)CN(C)C(=O)CN(C)C(=O)[C@H]([C@@H](C)CC)NC(=O)[C@H](CC(C)C)N(C)C(=O)C[C@@H](C(=O)N2CCCCC2)N(C)C(=O)[C@H](CC(C)C)NC(=O)C(C)(C)N(C)C1=O [Compound 423] ([NMeL]I[Sar][Sar][NEtPhe(4-Cl)][Sar][Phe(3-I)][Nle][NMeAib]L[NMeD]-Piperidide; lactam N-11)
Second: CCCC[C@@H]1NC(=O)[C@H](Cc2cc(Cl)cc(Cl)c2)NC(=O)CN(C)C(=O)[C@H](Cc2ccc(Cl)cc2)N(C)C(=O)CN(C)C(=O)CN(C)C(=O)[C@H]([C@@H](C)CC)NC(=O)[C@H](CC(C)C)N(C)C(=O)C[C@@H](C(=O)N2CCCCC2)N(C)C(=O)[C@H](CC(C)C)NC(=O)C(C)(C)N(C)C1=O [Compound 431] ([NMeL]I[Sar][Sar][NMePhe(4-Cl)][Sar][Phe(3,5-Cl2)][Nle][NMeAib]L[NMeD]-Piperidide; lactam N-11)
The IC50 of the first is 3.9-fold lower: 64 nM for the first, 250 nM for the second. The first is the more potent here.

Compared with `CC[C@H](C)[C@@H]1NC(=O)[C@H](C)N(C)C(=O)C[C@@H](C(=O)N2CCCC2)N(C)C(=O)[C@H](C(C)C)N(C)C(=O)C(C)(C)NC(=O)[C@H](Cc2ccccc2Cl)N(C)C(=O)[C@H](CCc2ccc(C(F)(F)F)c(Cl)c2)NC(=O)CN(C)C(=O)[C@H](CC2CCCCC2)N(C)C(=O)CN(C)C(=O)CN(C)C1=O` [Compound 426] ([NMeA]I[Sar][Sar][NMeCha][Sar][hPhe(3-Cl-4-CF3)][NMePhe(2-Cl)][Aib][NMeV][NMeD]-Pyrrolidide; lactam N-11), `CC[C@H](C)[C@@H]1NC(=O)[C@H](C)N(C)C(=O)C[C@@H](C(=O)N2CCCCC2)N(C)C(=O)[C@H](C2CCCCC2)N(C)C(=O)C2(CCCC2)NC(=O)[C@H](Cc2cccnc2)N(C)C(=O)[C@H](CCc2ccc(C(F)(F)F)c(Cl)c2)NC(=O)CN(C)C(=O)[C@H](CC2CCCCC2)N(C)C(=O)[C@@H]2CCCN2C(=O)CN(C)C1=O` [Compound 433] ([NMeA]I[Sar]P[NMeCha][Sar][hPhe(3-Cl-4-CF3)][NMe3Pal][Ac5c][NMeChg][NMeD]-Piperidide; lactam N-11) is 4-fold lower in IC50: 8.7 nM for the first, 2.2 nM for the second.

For `CC[C@H](C)[C@@H]1NC(=O)[C@H](CC(C)C)N(C)C(=O)C[C@@H](C(=O)N2CCCCC2)N(C)C(=O)[C@H](C2CCCCC2)N(C)C(=O)C2(CCCC2)NC(=O)[C@@H]2CCCN2C(=O)[C@H](CCc2ccc(C(F)(F)F)c(Cl)c2)NC(=O)CN(C)C(=O)[C@H]([C@@H](C)O)N(C)C(=O)CN(C)C(=O)CN(C)C1=O` [Compound 427] ([NMeL]I[Sar][Sar][NMeT][Sar][hPhe(3-Cl-4-CF3)]P[Ac5c][NMeChg][NMeD]-Piperidide; lactam N-11), the IC50 was 0.71 nM.
